Where two headings read alike, the source gives them in different places.
System: HIV-1 (H9/IIIB strain)
Assay: Multiple round HIV-1 infection assay in MT4-GFP cells (wild type cell assay, Viking)
Assay type: cell-based
Details: MT4-GFP cells infected with HIV-1 H9/IIIB, inhibition of reproductive ratio R0, ~48 h and ~72 h post-infection
Procedure: The antiviral activity of the Examples herein was assessed in an assay that measures the rate of replication of HIV in cell culture, and performed according to the following procedure. HIV-1 replication was monitored using MT4-gag-GFP clone D3 (hereafter designated MT4-GFP), which are MT-4 cells modified to harbor a GFP reporter gene, the expression of which is dependent on the HIV-1 expressed proteins tat and rev. Productive infection of an MT4-GFP cell with HIV-1 results in GFP expression approximately 24 h post-infection. MT4-GFP cells were maintained at 37° C./5% CO2/90% relative humidity in RPMI 1640 supplemented with 10% fetal bovine serum, 100 U/ml penicillin/streptomycin, and 400 μg/ml G418 to maintain the reporter gene. For infections, MT4-GFP cells were placed in the same medium lacking G418 and infected overnight with HIV-1 (H9/IIIB strain) virus at an approximate multiplicity of infection of 0.01 in the same incubation conditions. Cells were then washed and re-suspended in either RPMI 1640 at 2×10^5 cells/mL (0% NHS condition) or 100% normal human serum (NHS) at 2×10^5 cells/mL (100% NHS condition). Compound plates were prepared by dispensing compounds dissolved in DMSO into wells of 384 well poly-D-lysine-coated plates (0.2 μl/well) using an ECHO acoustic dispenser. Each compound was tested in a 10-point serial 3-fold dilution (typical final concentrations: 1050 nM-0.05 nM for 0% NHS condition or 42 μM-2.13 nM for 100% NHS condition). Controls included no inhibitor (DMSO only) and a combination of three antiviral agents (efavirenz, indinavir, an in-house integrase strand transfer inhibitor at final concentrations of 4 μM each). Cells were added ([…]) to compound plates and the infected cells were maintained at 37° C./5% CO2/90% relative humidity.
Infected cells were quantified at two time points, ˜48 h and ˜72 h post-infection, by counting the number of green cells in each well using an Acumen eX3 scanner. The increase in the number of green cells over ˜24 h period gives the reproductive ratio, R0, which is typically 5-15 and has been shown experimentally to be in logarithmic phase (data not shown). Inhibition of R0 is calculated for each well, and IC50s determined by non-linear 4-parameter curve fitting.

[1] = Human immunodeficiency virus 1, IIIB, 0% NHS condition (RPMI 1640), read-out: WILD TYPE CELL ASSAY Viking IP (0% NHS)
[2] = 100% normal human serum condition, read-out: WILD TYPE CELL ASSAY Viking IP (100% NHS)
[3] = 0% NHS condition (RPMI 1640), read-out: WILD TYPE CELL ASSAY Viking IP (0% NHS)

| Structure (SMILES) | IC50 [1] [nM] | IC50 [2] [nM] | IC50 [3] [nM] |
| --- | --- | --- | --- |
| CCC12CC(O)c3c(C(=O)NCc4c(F)cc(F)cc4F)c(=O)c(O)c(n31)C(=O)N(C)C2 (single isomer, unassigned) [Compound 45] | 1.1 | 17.9 |  |
| CC1C(O)c2c(C(=O)NCc3ccc(F)cc3F)c(=O)c(O)c3n2C1(C)CN(C)C3=O (single isomer, unassigned) [Compound 73] |  | 387 | 2.3 |
| CCC12CC(O)c3c(C(=O)NCc4c(F)ccc(F)c4F)c(=O)c(O)c(n31)C(=O)N(C)C2 (stereo not drawn) [Compound 52] |  | 150 | 2.7 |
| CCC12CC(O)c3c(C(=O)NCc4c(F)ccc(F)c4F)c(=O)c(O)c(n31)C(=O)N(C)C2 (single isomer, unassigned) [Compound 50] |  | 25.5 | 2.9 |
| CC1N(C)C(=O)c2c(O)c(=O)c(C(=O)NCc3ccc(F)cc3F)c3n2C1(C)CC3O (single isomer, unassigned) [Compound 71] |  | 91.1 | 3.1 |
| CC1N(C)C(=O)c2c(O)c(=O)c(C(=O)NCc3ccc(F)cc3F)c3n2C1(C)CC3O (single isomer, unassigned) [Compound 72] |  | 15.8 | 1.3 |
| CC1N(C)C(=O)c2c(O)c(=O)c(C(=O)NCc3ccc(F)cc3F)c3n2C1(C)CC3O (single isomer, unassigned) [Compound 66] |  | 32.3 | 1.4 |
| CCC12CC(O)c3c(C(=O)NCc4cccc(Cl)c4F)c(=O)c(O)c(n31)C(=O)N(C)C2 (single isomer, unassigned) [Compound 44] |  | 259 | 3.7 |
| CCN1CC2(COC)CC(O)c3c(C(=O)NCc4c(F)cc(F)cc4F)c(=O)c(O)c(n32)C1=O (stereo not drawn) [Compound 63] | 2.9 | 9300 |  |
| CN1CC2(C)CC(O)c3c(C(=O)NCc4cccc(Cl)c4F)c(=O)c(O)c(n32)C1=O (single isomer, unassigned) [Compound 34] |  | 178 | 2.1 |
| CN1CC2(C)CC(O)c3c(C(=O)NCc4c(F)cc(F)cc4F)c(=O)c(O)c(n32)C1=O (single isomer, unassigned) [Compound 26] |  | 107 | 2.1 |
| CCC12CC(O)c3c(C(=O)NCc4c(F)cc(F)cc4F)c(=O)c(O)c(n31)C(=O)N(C)C2 (stereo not drawn) [Compound 48] |  | 261 | 2.1 |
| CCC12CC(O)c3c(C(=O)NCc4cccc(Cl)c4F)c(=O)c(O)c(n31)C(=O)N(C)C2 (single isomer, unassigned) [Compound 42] |  | 59.3 | 2.8 |
| CCC12CC(O)c3c(C(=O)NCc4ccc(F)cc4F)c(=O)c(O)c(n31)C(=O)N(C)C2 (single isomer, unassigned) [Compound 39] |  | 322 | 2.1 |
| CN1CC2(C)CC(O)c3c(C(=O)NCc4ccc(F)cc4)c(=O)c(O)c(n32)C1=O (single isomer, unassigned) [Compound 22] |  | 227 | 3 |

The next lines start with results.

| IC50 [1] [nM] | Structure (SMILES) | IC50 [2] [nM] | IC50 [3] [nM] |
| --- | --- | --- | --- |
| 1.7 | CCC12CC(O)c3c(C(=O)NCc4c(F)ccc(F)c4F)c(=O)c(O)c(n31)C(=O)N(C)C2 (stereo not drawn) [Compound 51] | 32.2 |  |
| 1.4 | CN1CC2(C)CC(O)c3c(C(=O)NCc4c(F)cc(F)cc4F)c(=O)c(O)c(n32)C1=O (single isomer, unassigned) [Compound 25] | 1700 |  |
| 2.6 | CCC12CC(O)c3c(C(=O)NCc4c(F)ccc(Cl)c4F)c(=O)c(O)c(n31)C(=O)N(C)C2 (single isomer, unassigned) [Compound 53] | 4370 |  |
| 2.6 | CCC12CC(O)c3c(C(=O)NCc4c(F)ccc(F)c4F)c(=O)c(O)c(n31)C(=O)N(C)C2 (single isomer, unassigned) [Compound 49] | 1020 |  |
| 1.7 | CN1CC2(C)CC(O)c3c(C(=O)NCc4c(F)ccc(Cl)c4F)c(=O)c(O)c(n32)C1=O (stereo not drawn) [Compound 31] | 268 |  |
| 2.2 | CCC12CC(O)c3c(C(=O)NCc4c(F)ccc(Cl)c4F)c(=O)c(O)c(n31)C(=O)N(C)C2 (stereo not drawn) [Compound 55] | 93.6 |  |
